Measurements taken from patent publication US7632829B2, “Diazepan derivatives” (Hoffmann-La Roche Inc., priority 2006, dated 2009).

target: T1, human chemokine receptor 2 isoform B (Homo sapiens, UniProt P41597); assay: Calcium mobilization assay (FLIPR, CHOK1-CCR2B-A5 cells, 20 nM MCP-1); type: cell-based; conditions: Ca mobilisation assay, CCR2, antagonist activity vs 20 nM MCP-1
T1 construct: host or cells: CHOK1-CCR2B-A5 (CHO-K1)
T1 sequence (P41597 1-360 isoform P41597-2): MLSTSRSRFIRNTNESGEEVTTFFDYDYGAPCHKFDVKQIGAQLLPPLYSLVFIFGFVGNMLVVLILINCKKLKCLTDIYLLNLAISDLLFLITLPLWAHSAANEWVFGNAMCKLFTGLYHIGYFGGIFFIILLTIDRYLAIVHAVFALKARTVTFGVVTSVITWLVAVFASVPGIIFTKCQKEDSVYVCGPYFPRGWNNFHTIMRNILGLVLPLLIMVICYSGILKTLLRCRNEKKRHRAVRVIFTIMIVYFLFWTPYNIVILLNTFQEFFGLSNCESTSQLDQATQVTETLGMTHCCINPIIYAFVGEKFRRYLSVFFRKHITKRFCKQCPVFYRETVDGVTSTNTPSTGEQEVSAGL
How it was run: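 Antagonism read as IC50 against 20 nM MCP-1-evoked calcium rise (peak minus baseline Fluo-4 signal, FLIPR) in CCR2B-overexpressing CHO-K1 cells. Compounds were preincubated 20-30 min at 30 °C, with agonist activity recorded for 80 s on addition.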

First: O=C(/C=C/c1ccc(Cl)c(Cl)c1)N1CCC(=O)N(CCCN2CC(O)CCC2CO)CC1 (racemic) [Example 273]
Second: CN(C)C1CCN(CCCN2CCN(C(=O)/C=C/c3ccc(Cl)c(Cl)c3)CCC2=O)C1 (racemic) [Example 277, (rac)-1-[(E)-3-(3,4-Dichloro-phenyl)-acryloyl]-4-[3-(3-dimethylamino-pyrollidin-1-yl)-propyl]-[1,4]diazepan-5-one]
The IC50 of the first is 4.1-fold lower: 313 nM for the first, 1290 nM for the second.

Going from `CC1(C)CCN(CCCN2CCN(C(=O)/C=C/c3ccc(Cl)c(Cl)c3)CCC2=O)CC1O` (racemic) [Example 274] to `CCN(CC)C1CCN(CCCN2CCN(C(=O)/C=C/c3ccc(Cl)c(Cl)c3)CCC2=O)C1` (racemic) [Example 278, (rac)-1-[(E)-3-(3,4-Dichloro-phenyl)-acryloyl]-4-[3-(3-diethylamino-pyrollidin-1-yl)-propyl]-[1,4]diazepan-5-one], the IC50 rises from 4 nM to 540 nM (140-fold). The first is the more potent here.

Compared with `CC1CCN(CC(O)CN2CCN(C(=O)/C=C/c3ccc(Cl)c(Cl)c3)CCC2=O)CC1O` (racemic) [Example 280], `C[C@@H]1CCN(CC(O)CN2CCN(C(=O)/C=C/c3ccc(Cl)c(Cl)c3)CCC2=O)C[C@H]1O` (mixture of isomers) [Example 315, (rac)-1-[(E)-3-(3,4-Dichloro-phenyl)-acryloyl]-4-[2-hydroxy-3-(trans-3-hydroxy-4-methyl-piperidin-1-yl)-propyl]-[1,4]diazepan-5-one] is 34-fold higher in IC50: 21 nM for the first, 717 nM for the second. The first is the more potent here.

Compared with `O=C(/C=C/c1ccc(Cl)c(Cl)c1)N1CCC(=O)N(CC(O)CN2CCCC(O)C2)CC1` (racemic) [Example 281], `CC1CCCN(CC(O)CN2CCN(C(=O)/C=C/c3ccc(Cl)c(Cl)c3)CCC2=O)C1` (racemic) [Example 288] is 1.6-fold higher in IC50: 129 nM for the first, 206 nM for the second. The first is the more potent here.

Going from `C[C@H]1[C@H](O)CCCN1CC(O)CN1CCN(C(=O)/C=C/c2ccc(Cl)c(Cl)c2)CCC1=O` (mixture of isomers) [Example 282] to `CC1CN(CC(O)CN2CCN(C(=O)/C=C/c3ccc(Cl)c(Cl)c3)CCC2=O)CCC1O` (racemic) [Example 300], the IC50 rises from 212 nM to 981 nM (4.6-fold). The first is the more potent here.

First: COC1CCCN(CC(O)CN2CCN(C(=O)/C=C/c3ccc(Cl)c(Cl)c3)CCC2=O)C1 (racemic) [Example 283]
Second: COCC1CCCN(CC(O)CN2CCN(C(=O)/C=C/c3ccc(Cl)c(Cl)c3)CCC2=O)C1 (racemic) [Example 293]
The IC50 of the first is 3.6-fold lower: 311 nM for the first, 1120 nM for the second.

`O=C(/C=C/c1ccc(Cl)c(Cl)c1)N1CCC(=O)N(CC(O)CN2CC[C@@H](F)[C@H](O)C2)CC1` (mixture of isomers) [Example 284] and `C[C@@H]1CN(CC(O)CN2CCN(C(=O)/C=C/c3ccc(Cl)c(Cl)c3)CCC2=O)CC[C@H]1O` (mixture of isomers) [Example 316, (rac)-1-[(E)-3-(3,4-Dichloro-phenyl)-acryloyl]-4-[2-hydroxy-3-(trans-4-hydroxy-3-methyl-piperidin-1-yl)-propyl]-[1,4]diazepan-5-one] are within 1.5-fold of each other in IC50: 717 nM for the first, 755 nM for the second.

`O=C(/C=C/c1ccc(Cl)c(Cl)c1)N1CCC(=O)N(CC(O)CN2CCCC(CO)C2)CC1` (racemic) [Example 289] and `O=C(/C=C/c1ccc(Cl)c(Cl)c1)N1CCC(=O)N(CC(O)CN2CCC(CO)CC2)CC1` (racemic) [Example 291, (rac)-(1-[(E)-3-(3,4-Dichloro-phenyl)-acryloyl]-4-[2-hydroxy-3-(4-hydroxymethyl-piperidin-1-yl)-propyl]-[1,4]diazepan-5-one] are within 1.5-fold of each other in IC50: 296 nM for the first, 404 nM for the second.

Compared with `O=C(/C=C/c1ccc(Cl)c(Cl)c1)N1CCC(=O)N(CC(O)CN2CCCCC2CO)CC1` (racemic) [Example 290], `C[C@@H]1CN(CC(O)CN2CCN(C(=O)C=Cc3ccc(Cl)c(Cl)c3)CCC2=O)CC[C@@H]1O` (mixture of isomers) [Example 318] is 3.6-fold higher in IC50: 199 nM for the first, 707 nM for the second.

Compared with `CC(C)N1CCN(CC(O)CN2CCN(C(=O)/C=C/c3ccc(Cl)c(Cl)c3)CCC2=O)CC1` (racemic) [Example 296], `CC(C)CN1CCN(CC(O)CN2CCN(C(=O)C=Cc3ccc(Cl)c(Cl)c3)CCC2=O)CC1` (racemic) [Example 325] is 2.5-fold higher in IC50: 298 nM for the first, 741 nM for the second.

First: O=C(/C=C/c1ccc(Cl)c(Cl)c1)N1CCC(=O)N(CC(O)CN2CCN(C3CCCC3)CC2)CC1 (racemic) [Example 298]
Second: O=C(/C=C/c1ccc(Cl)c(Cl)c1)N1CCC(=O)N(CC(O)CN2CCC3(CCCO3)CC2)CC1 (racemic) [Example 326]
The IC50 of the first is 3.6-fold lower: 281 nM for the first, 999 nM for the second.

Going from `CC(C)N1CCN(CC(O)CN2CCN(C(=O)/C=C/c3ccc(Cl)c(Cl)c3)CCC2=O)CC1C` (racemic) [Example 301] to `CC1(C)CN(CC(O)CN2CCN(C(=O)/C=C/c3ccc(Cl)c(Cl)c3)CCC2=O)CCC1O` (racemic) [Example 324], the IC50 falls from 977 nM to 215 nM (4.5-fold). The second is the more potent here.

`CC1(O)CCCN(CC(O)CN2CCN(C(=O)/C=C/c3ccc(Cl)c(Cl)c3)CCC2=O)C1` (racemic) [Example 303] and `CC1(CO)CCCN(CC(O)CN2CCN(C(=O)/C=C/c3ccc(Cl)c(Cl)c3)CCC2=O)C1` (racemic) [Example 305] are within 1.5-fold of each other in IC50: 257 nM for the first, 192 nM for the second.

`COCC1(C)CCCN(CC(O)CN2CCN(C(=O)/C=C/c3ccc(Cl)c(Cl)c3)CCC2=O)C1` (racemic) [Example 306] and `CC1(CO)CCN(CC(O)CN2CCN(C(=O)/C=C/c3ccc(Cl)c(Cl)c3)CCC2=O)CC1` (racemic) [Example 319] are within 1.5-fold of each other in IC50: 391 nM for the first, 265 nM for the second.

First: O=C(/C=C/c1ccc(Cl)c(Cl)c1)N1CCC(=O)N(CC(O)CN2CCC3(CC3)C(O)C2)CC1 (racemic) [Example 309, (rac)-1-[(E)-3-(3,4-Dichloro-phenyl)-acryloyl]-4-[2-hydroxy-3-(4-hydroxy-6-aza-spiro[2.5]oct-6-yl)-propyl]-[1,4]diazepan-5-one]
Second: O=C(/C=C/c1ccc(Cl)c(Cl)c1)N1CCC(=O)N(CC(O)CN2CCC(O)C3(CC3)C2)CC1 (racemic) [Example 317]
The IC50 of the first is 33-fold lower: 16 nM for the first, 528 nM for the second.

`CN(CCO)CC(O)CN1CCN(C(=O)/C=C/c2ccc(Cl)c(Cl)c2)CCC1=O` (racemic) [Example 320] and `CC1(CO)CCCN1CC(O)CN1CCN(C(=O)C=Cc2ccc(Cl)c(Cl)c2)CCC1=O` (racemic) [Example 322] are within 1.5-fold of each other in IC50: 1490 nM for the first, 1200 nM for the second.

`CCN(CC)C1CCN(CCN2CCN(C(=O)/C=C/c3ccc(Cl)c(Cl)c3)CCC2=O)C1` (racemic) [Example 347] and `CC1CCCN1CCN1CCN(C(=O)/C=C/c2ccc(Cl)c(Cl)c2)CCC1=O` (racemic) [Example 348] are within 1.5-fold of each other in IC50: 864 nM for the first, 765 nM for the second.

`O=C(/C=C/c1ccc(Cl)c(Cl)c1)N1CCC(=O)N(CCN[C@@H]2CCCC[C@H]2O)CC1` (racemic) [Example 355] and `CC1CN(CC(O)CCN2CCN(C(=O)/C=C/c3ccc(Cl)c(Cl)c3)CCC2=O)CCC1O` (racemic) [Example 358] are within 1.5-fold of each other in IC50: 982 nM for the first, 873 nM for the second.

First: CC1CCN(CC(O)CCN2CCN(C(=O)/C=C/c3ccc(Cl)c(Cl)c3)CCC2=O)CC1O (racemic) [Example 359]
Second: COCC1CCCN(CC(O)CCN2CCN(C(=O)/C=C/c3ccc(Cl)c(Cl)c3)CCC2=O)C1 (racemic) [Example 361]
The IC50 of the first is 3.6-fold higher: 807 nM for the first, 226 nM for the second. The second is the more potent here.

Compared with `COCC1CCN(CC(O)CCN2CCN(C(=O)/C=C/c3ccc(Cl)c(Cl)c3)CCC2=O)CC1` (racemic) [Example 360], `COC(=O)NC1CCN(CC(O)CCN2CCN(C(=O)/C=C/c3ccc(Cl)c(Cl)c3)CCC2=O)CC1` (racemic) [Example 364] is 3-fold higher in IC50: 179 nM for the first, 531 nM for the second. The first is the more potent here.

`CC1(CO)CCCCN1CC(O)CCN1CCN(C(=O)/C=C/c2ccc(Cl)c(Cl)c2)CCC1=O` (racemic) [Example 363] showed an IC50 of 73 nM.
